These results are taken from BindingDB's records for doi:10.1124/mol.64.1.143 (Abbott Laboratories, 2003).

A word on the Ki: it is a measure of affinity in units of concentration, obtained from inhibition or displacement.

This assay has as its target T1, Calcium-activated potassium channel subunit beta (Sus scrofa, UniProt C0KY85).
T1 sequence (C0KY85 whole entry): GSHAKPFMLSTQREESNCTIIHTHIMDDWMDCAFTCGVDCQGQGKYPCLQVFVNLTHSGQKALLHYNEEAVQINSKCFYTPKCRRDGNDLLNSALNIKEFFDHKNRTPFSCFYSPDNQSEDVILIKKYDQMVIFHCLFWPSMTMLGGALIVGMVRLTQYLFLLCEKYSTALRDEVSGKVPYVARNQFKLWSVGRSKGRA

Where “and” joins values, the source holds several entries; their conditions need not be identical. Equal values may be shown once. A value given as a limit tells only on which side of the number the result lay.

With `CC1(C)Oc2ccc(C#N)cc2C(N2CCCC2=O)C1O` (stereo not drawn) [NSC_93504], the inhibition constant (Ki) was 542 nM and 157 nM.
As to `CCOc1ccccc1N=C(C[N+](=O)[O-])NC(C)C(C)(C)C` (stereo not drawn) [CAS_3038059], the inhibition constant (Ki) was 41.3 nM and 16 nM.
As for `O=C1COCC2=NC3=C([C@H](c4ccc(F)c(I)c4)C12)S(=O)(=O)CC3` (stereo partly drawn) [A-312110], the figure is 4.9 nM; as for `CCC(C)(C)NC(=NC#N)Nc1cccnc1` [NSC_43345], 20.6 nM and 10.5 nM; as for `CC1=NS(=O)(=O)c2cc(Cl)ccc2N1` [NSC_3019], over 10000 nM.
As for `CC(N/C(=N\C#N)Nc1ccncc1)C(C)(C)C` (stereo not drawn) [NSC_4826], the figure is 251 nM and 104 nM.
In the case of `C[C@](O)(C(=O)Nc1ccc(C(=O)c2ccccc2)cc1)C(F)(F)F` [ZD-6169] it was 630 nM and 451 nM; in that of `N#Cc1cccc(C2C3=C(CCCC3=O)N=C3CCCC(=O)C32)c1` (stereo not drawn) [zm244085], 2770 nM and 671 nM.
